Activity calls are given as the source filed them.
Assays:
INS1 = assay: beta cell apoptosis inhibitors, cytokine rescue, dose response, luminescence, retest (AID 449756); format: functional, cell-based; conditions: Rattus norvegicus;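 also: cell death triggered by IL-1 beta plus TNF-alpha plus IFN-gamma mixture; protective hits raise ATP signal compared with cytokine alone wells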
[1] = cytotoxicity toward NIH3T3 fibroblasts, dose response, counter-screen, cell-based, ATP luminescence, mouse fibroblasts (AID 2010); format: functional;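 also: cells exposed to compound for about 90 hours before reading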
[2] = target: T1, Heat shock factor protein 1 (Mus musculus, UniProt P38532); assay: HSF1 potentiators in luciferase reporter cells, confirmation, cell-based, NIH3T3, luminescence, dose retest (AID 435004); format: functional;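 also: stress induced by proteasome inhibitor MG132 added 30 min after compound; luciferase reporter driven by HSF1 response element in NIH3T3 cells; actives raise luminescence as potentiators of the MG132 stress response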
T1 sequence (P38532 whole entry): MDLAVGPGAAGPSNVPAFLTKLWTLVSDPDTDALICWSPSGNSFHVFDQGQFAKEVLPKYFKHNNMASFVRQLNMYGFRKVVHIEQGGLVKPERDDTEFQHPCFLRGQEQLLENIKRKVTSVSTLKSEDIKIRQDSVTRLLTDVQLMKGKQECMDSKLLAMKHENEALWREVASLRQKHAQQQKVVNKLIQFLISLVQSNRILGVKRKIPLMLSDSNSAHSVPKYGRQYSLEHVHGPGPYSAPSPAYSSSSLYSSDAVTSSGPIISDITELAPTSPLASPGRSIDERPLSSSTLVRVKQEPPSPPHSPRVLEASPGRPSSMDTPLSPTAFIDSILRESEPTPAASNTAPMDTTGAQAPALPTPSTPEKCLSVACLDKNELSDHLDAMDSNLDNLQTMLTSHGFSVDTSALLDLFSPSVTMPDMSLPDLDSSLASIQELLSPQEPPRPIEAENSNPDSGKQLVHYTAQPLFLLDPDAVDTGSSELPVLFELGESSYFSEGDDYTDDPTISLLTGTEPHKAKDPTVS

[3] = inhibitors of intracellular T. cruzi replication, confirmation, NIH3T3 host cells, beta-gal luminescence (AID 2044); format: functional, cell-based;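 also: intracellular parasites grown in NIH/3T3 mouse fibroblasts as host cells; luminescent beta-galactosidase reporter signal from transgenic T. cruzi replicating inside host cells; inhibitors lower the luminescence signal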
H9c2 = assay: cells; format: functional, cell-based; conditions: Rattus norvegicus, H9c2, Myocardium;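 also: confirmatory concentration-response retest of ultra-high-throughput screening hits for modulation of myocardial damage; cell death induced by hydrogen peroxide oxidative stress; compound pretreatment for 60 min then peroxide exposure for 2 h; potency is for protecting the cells against peroxide damage rather than for killing them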
[4] = HEp-2 cell cytotoxicity, dose response, cytotoxicity control for RSV inhibitor project, HTS (AID 2410); format: functional; conditions: human respiratory syncytial virus
[5] = Luminescence Cell-Based Dose Confirmation HTS to Identify Activators of 5'UTR Stem-Loop Driven Alpha-Synuclein mRNA Translation in H4 Neuroglioblastoma Cells. [Related pubchem assays: 1829 (Project Summary), 1814 (Primary HTS)]; format: functional
[6] = Luminescence Cell-Based Dose Response HTS to Identify Activators of Luciferase Translation or Activity in H4 […] Cells. [Related pubchem assays: 1829 (Project Summary), 1814 (Primary HTS)]; format: functional
H4 = assay: Luminescence Cell-Based Dose Response HTS to Identify Activators of 5'UTR Stem-Loop Driven Prion Protein mRNA Translation in H4 Neuroglioblastoma Cells. [Related pubchem assays: 1829 (Project Summary), 1814 (Primary HTS)]; format: functional; conditions: Homo sapiens
[7] = P. falciparum Dd2 growth inhibitors, dose response, SYBR Green, cherry-picked samples (AID 1159567); format: functional, cell-based
[8] = target: T2, Rac GTPase-activating protein 1 (Homo sapiens, UniProt Q9H0H5); assay: MgcRacGAP GTPase-activating activity inhibitors, confirmation, biochemical, ADP Hunter fluorescence, primary and confirmatory (AID 624330); format: functional
T2 sequence (Q9H0H5 whole entry): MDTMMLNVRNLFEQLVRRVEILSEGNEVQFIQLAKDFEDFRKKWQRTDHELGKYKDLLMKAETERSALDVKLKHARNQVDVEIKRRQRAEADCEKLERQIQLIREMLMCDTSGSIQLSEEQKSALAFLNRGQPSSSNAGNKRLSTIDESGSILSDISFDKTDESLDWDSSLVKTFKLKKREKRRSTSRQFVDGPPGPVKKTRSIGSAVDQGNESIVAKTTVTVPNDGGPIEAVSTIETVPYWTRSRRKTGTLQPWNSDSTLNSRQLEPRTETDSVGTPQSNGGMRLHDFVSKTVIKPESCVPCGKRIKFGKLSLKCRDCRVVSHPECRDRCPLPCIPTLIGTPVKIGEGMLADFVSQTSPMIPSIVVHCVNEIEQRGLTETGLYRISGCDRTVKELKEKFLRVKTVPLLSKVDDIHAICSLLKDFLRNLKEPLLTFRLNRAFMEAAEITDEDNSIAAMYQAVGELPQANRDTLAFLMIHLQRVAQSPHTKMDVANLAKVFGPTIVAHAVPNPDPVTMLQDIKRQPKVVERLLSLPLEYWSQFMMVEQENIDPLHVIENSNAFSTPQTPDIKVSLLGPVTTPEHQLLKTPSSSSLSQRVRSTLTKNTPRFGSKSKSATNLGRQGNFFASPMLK

[9] = target: T3, Corticotropin-releasing factor receptor 2/Corticotropin-releasing factor-binding protein (Homo sapiens, UniProt P24387+Q13324); assay: activators of CRF receptor 2 with binding protein – uHTS hits, confirmation (AID 602473); format: functional; conditions: read-out: EC50_Mean
T3 sequence (Q13324 whole entry): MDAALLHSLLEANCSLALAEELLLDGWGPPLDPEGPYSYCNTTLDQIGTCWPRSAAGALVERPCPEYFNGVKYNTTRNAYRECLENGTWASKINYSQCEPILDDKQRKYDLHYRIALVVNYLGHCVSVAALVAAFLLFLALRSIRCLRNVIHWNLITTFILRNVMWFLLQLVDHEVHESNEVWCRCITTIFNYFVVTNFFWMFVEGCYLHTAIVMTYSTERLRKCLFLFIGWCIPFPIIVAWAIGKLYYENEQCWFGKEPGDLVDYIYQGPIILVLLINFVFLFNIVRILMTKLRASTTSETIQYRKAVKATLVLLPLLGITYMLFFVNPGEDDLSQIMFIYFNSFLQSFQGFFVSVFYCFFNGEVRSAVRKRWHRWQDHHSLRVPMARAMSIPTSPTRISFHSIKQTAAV
T3 sequence (P24387 whole entry): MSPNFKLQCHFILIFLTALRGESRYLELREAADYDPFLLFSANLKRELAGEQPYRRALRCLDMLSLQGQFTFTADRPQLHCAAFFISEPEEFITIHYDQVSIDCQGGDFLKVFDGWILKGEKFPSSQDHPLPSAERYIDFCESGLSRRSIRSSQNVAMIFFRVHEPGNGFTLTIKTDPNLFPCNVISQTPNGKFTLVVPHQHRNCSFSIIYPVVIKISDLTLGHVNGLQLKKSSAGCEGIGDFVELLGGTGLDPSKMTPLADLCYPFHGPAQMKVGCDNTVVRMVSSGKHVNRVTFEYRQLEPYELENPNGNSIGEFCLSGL

Protein skinhead-1 = target: T4, Protein skinhead-1 (Caenorhabditis elegans, UniProt P34707); format: functional
T4 sequence (P34707 whole entry): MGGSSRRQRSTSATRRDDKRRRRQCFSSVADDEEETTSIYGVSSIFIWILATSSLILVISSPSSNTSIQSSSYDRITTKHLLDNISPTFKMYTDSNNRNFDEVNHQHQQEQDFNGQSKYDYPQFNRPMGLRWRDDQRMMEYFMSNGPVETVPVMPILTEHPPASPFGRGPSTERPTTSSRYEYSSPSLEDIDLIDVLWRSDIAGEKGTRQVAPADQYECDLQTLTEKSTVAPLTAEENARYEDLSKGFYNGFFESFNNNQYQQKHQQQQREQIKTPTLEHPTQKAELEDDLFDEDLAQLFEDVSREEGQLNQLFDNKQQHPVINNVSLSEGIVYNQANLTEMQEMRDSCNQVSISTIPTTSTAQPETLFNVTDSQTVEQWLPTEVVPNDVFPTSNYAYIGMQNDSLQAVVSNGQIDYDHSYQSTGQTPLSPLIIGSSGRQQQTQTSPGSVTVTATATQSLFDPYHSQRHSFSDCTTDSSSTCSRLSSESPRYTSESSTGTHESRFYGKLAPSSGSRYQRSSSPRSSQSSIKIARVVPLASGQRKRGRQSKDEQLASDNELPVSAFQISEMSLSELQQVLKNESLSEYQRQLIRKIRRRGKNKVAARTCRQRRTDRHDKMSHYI

Cc1[nH]c2ccccc2c1CN1CCN(c2ccccn2)CC1
AC50 (INS1): 4.21 µM (active) | EC50 [1]: > 60 µM (not active) | EC50 [2]: 84 µM (active) | EC50 [3]: 1.28 µM (active)

O=S(=O)(c1cccc(F)c1)N1CCN(c2nc(-c3cccnc3)nc3ccccc23)CC1
IC50 (H9c2): > 79 µM (inactive)

COc1cc(C(=O)Sc2ccc(Cl)cc2)cc(OC)c1OC
CC50 [4]: 32.8 µM (active) | EC50 [2]: 1.49 µM (active)

Cn1c(=O)n(/N=C/c2ccccc2)c2ccccc21
EC50 [5]: 17.3 µM (active) | EC50 [6]: 10.7 µM (active) | EC50 (H4): 31 µM (active)

COc1ccc(-c2oc(=O)c3cc(OC)c(OC)cc3c2C#CCCO)cc1
IC50 (H9c2): > 79 µM (inactive)

Cc1oc2ccc(NS(=O)(=O)c3ccc(C(C)(C)C)cc3)cc2c1C(=O)Nc1ccccc1
EC50 [2]: > 260 µM (inactive)

N#Cc1ccc(-c2ccc([C@@H]3[C@@H]4CN(S(=O)(=O)Cc5ccccc5)C[C@H]3N4)cc2)cc1
AC50 [7]: 6.48 µM (active)

Cc1cc(Br)cc(/C=N/c2ccc(N3CCOCC3)cc2)c1O
IC50 (H9c2): 19.7 µM (active) | IC50 [8]: 14.6 µM (active)

CC(C)c1ccc2[nH]c3c(c2c1)[C@@H]1CCN2C(=O)CCC[C@H](C3)[C@H]12
EC50 [5]: 11.9 µM (active) | EC50 [6]: 53.6 µM (active) | EC50 (H4): > 120 µM (not active)

CCCCn1/c(=N/C(=O)c2cccnc2)c(C#N)cc2c(=O)n3cccc(C)c3nc21
IC50 (H9c2): 26.2 µM (active) | EC50 [9]: > 53 µM (inactive)

COc1cc2c(cc1OC)C(COc1ccc3c(C)cc(=O)oc3c1)N(C(=O)c1ccco1)CC2 (configuration not stated)
IC50 (H9c2): > 79 µM (inactive)

CC1CN(c2nn3c(=O)c4ccccc4nc3c3ccccc23)CC(C)O1 (configuration not stated)
IC50 (H9c2): > 79 µM (inactive)

O=C(NN=Cc1ccc(N2CCOCC2)s1)c1ccc([N+](=O)[O-])cc1
IC50 (H9c2): 13.1 µM (active)

Cc1ccc(O)c(NC(=O)c2onc(C)c2Cl)c1
EC50 [2]: 3.11 µM (active)

O=C(c1ccccc1)c1ccc2nc(N3CCN(C(=O)c4ccco4)CC3)c3nncn3c2c1
IC50 (H9c2): > 79 µM (inactive)

CC(C)(C)OC(=O)NCC12C=CC(O1)C1C(=O)N(Cc3ccccc3)C(=O)C12 (configuration not stated)
IC50 (H9c2): > 79 µM (inactive) | IC50 (Protein skinhead-1): > 100 µM (inactive)
